ChEMBL document CHEMBL1201862, “PubChem BioAssay data set” (2004)
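How tested: cells in 96-well plates exposed to compound for 48 hours at five concentrations. Abbreviation: GI50, concentration required for 50% inhibition of growth.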 Calls of active or inactive are those of the source. Cut-off read from the data, not from the text of the source: active = GI50 up to about 1.1 µM and inactive = higher.

Columns and labels:
Experiment in all cases: growth of human tumour cells (NCI), 48 h
A498 = tested on: A498
ACHN = tested on: ACHN
COLO 205 = tested on: COLO 205
EKVX = tested on: EKVX
HOP-92 = tested on: HOP-92
Hs-578T = tested on: Hs-578T
KM12 = tested on: KM12
LOX IMVI = tested on: LOX IMVI
M14 = tested on: M14
MCF7 = tested on: MCF7
MDA-MB-435 = tested on: MDA-MB-435
NCI-H23 = tested on: NCI-H23
NCI-H460 = tested on: NCI-H460
NCI/ADR-RES = tested on: NCI/ADR-RES
SK-MEL-5 = tested on: SK-MEL-5
SN12C = tested on: SN12C
SNB-19 = tested on: SNB-19
SNB-75 = tested on: SNB-75
U-251 = tested on: U-251
SR = tested on: SR

Compound	GI50 (A498)	GI50 (ACHN)	GI50 (COLO 205)	GI50 (EKVX)	GI50 (HOP-92)	GI50 (Hs-578T)	GI50 (KM12)	GI50 (LOX IMVI)	GI50 (M14)	GI50 (MCF7)	GI50 (MDA-MB-435)	GI50 (NCI-H23)	GI50 (NCI-H460)	GI50 (NCI/ADR-RES)	GI50 (SK-MEL-5)	GI50 (SN12C)	GI50 (SNB-19)	GI50 (SNB-75)	GI50 (U-251)	GI50 (SR)
CO/C(N)=C(C#N)/N=C/c1ccsc1	> 100 µM (inactive)	> 100 µM (inactive)	36.6 µM (inactive)	54.6 µM (inactive)	34.1 µM (inactive)	52.2 µM (inactive)	60.7 µM (inactive)	18.6 µM (inactive)	29 µM (inactive)	32.5 µM (inactive)	36.2 µM (inactive)	37.3 µM (inactive)	> 100 µM (inactive)	> 100 µM (inactive)	28.2 µM (inactive)	> 100 µM (inactive)	> 100 µM (inactive)	56 µM (inactive)	40 µM (inactive)	–
CC(=O)NCCCCNCCCNC(C)=O	> 100 µM (inactive)	> 100 µM (inactive)	> 100 µM (inactive)	> 100 µM (inactive)	> 100 µM (inactive)	> 100 µM (inactive)	> 100 µM (inactive)	> 100 µM (inactive)	> 100 µM (inactive)	> 100 µM (inactive)	> 100 µM (inactive)	> 100 µM (inactive)	> 100 µM (inactive)	> 100 µM (inactive)	> 100 µM (inactive)	> 100 µM (inactive)	> 100 µM (inactive)	> 100 µM (inactive)	> 100 µM (inactive)	–
O=C(CN1CCCC1)Nc1ccc2sc3ccccc3c(=O)c2n1	–	12.5 µM (inactive)	14 µM (inactive)	32.7 µM (inactive)	27.3 µM (inactive)	21.2 µM (inactive)	19.5 µM (inactive)	11 µM (inactive)	24 µM (inactive)	27.2 µM (inactive)	14.7 µM (inactive)	24.2 µM (inactive)	22 µM (inactive)	15.5 µM (inactive)	16.5 µM (inactive)	16.4 µM (inactive)	32.7 µM (inactive)	19.7 µM (inactive)	18.7 µM (inactive)	24.9 µM (inactive)
Clc1cc2ncn(C3CCCO3)c2cc1Cl (stereo unspecified)	–	98.9 µM (inactive)	> 100 µM (inactive)	27.5 µM (inactive)	98.9 µM (inactive)	48.8 µM (inactive)	28.9 µM (inactive)	54.2 µM (inactive)	> 100 µM (inactive)	> 100 µM (inactive)	> 100 µM (inactive)	> 100 µM (inactive)	–	99.8 µM (inactive)	43.3 µM (inactive)	> 100 µM (inactive)	> 100 µM (inactive)	26.4 µM (inactive)	69.7 µM (inactive)	48.3 µM (inactive)
CC1(C)N=C(N)N=C(N)N1c1cccc(C(=O)Nc2ccc(S(=O)(=O)F)cc2)c1	> 100 µM (inactive)	> 100 µM (inactive)	> 100 µM (inactive)	> 100 µM (inactive)	> 100 µM (inactive)	> 100 µM (inactive)	> 100 µM (inactive)	> 100 µM (inactive)	> 100 µM (inactive)	> 100 µM (inactive)	> 100 µM (inactive)	> 100 µM (inactive)	> 100 µM (inactive)	> 100 µM (inactive)	> 100 µM (inactive)	> 100 µM (inactive)	> 100 µM (inactive)	> 100 µM (inactive)	> 100 µM (inactive)	–
CC(=O)Nc1ccc(CNc2cc(=O)[nH]c(=O)[nH]2)cc1	–	> 100 µM (inactive)	> 100 µM (inactive)	> 100 µM (inactive)	> 100 µM (inactive)	> 100 µM (inactive)	> 100 µM (inactive)	> 100 µM (inactive)	> 100 µM (inactive)	> 100 µM (inactive)	> 100 µM (inactive)	> 100 µM (inactive)	> 100 µM (inactive)	> 100 µM (inactive)	> 100 µM (inactive)	> 100 µM (inactive)	> 100 µM (inactive)	> 100 µM (inactive)	> 100 µM (inactive)	> 100 µM (inactive)
Cc1cn([C@H]2C=C[C@@H](CO)O2)c(=O)[nH]c1=O [STAVUDINE]	–	> 1000 µM (inactive)	410 µM (inactive)	> 1000 µM (inactive)	679 µM (inactive)	> 1000 µM (inactive)	> 1000 µM (inactive)	> 1000 µM (inactive)	> 1000 µM (inactive)	617 µM (inactive)	> 1000 µM (inactive)	776 µM (inactive)	–	678 µM (inactive)	> 1000 µM (inactive)	> 1000 µM (inactive)	> 1000 µM (inactive)	796 µM (inactive)	> 1000 µM (inactive)	780 µM (inactive)
CN(Cc1cnc2nc(N)nc(N)c2n1)c1ccc(C(=O)NCS(=O)(=O)O)cc1	> 100 µM (inactive)	64.9 µM (inactive)	> 100 µM (inactive)	> 100 µM (inactive)	1.34 µM (inactive)	> 100 µM (inactive)	60.1 µM (inactive)	90.4 µM (inactive)	> 100 µM (inactive)	57.9 µM (inactive)	91.2 µM (inactive)	> 100 µM (inactive)	92.7 µM (inactive)	34.3 µM (inactive)	> 100 µM (inactive)	> 100 µM (inactive)	> 100 µM (inactive)	29.4 µM (inactive)	> 100 µM (inactive)	–
NC(=O)C1=C(O)C[C@@H]2CC3Cc4cccc(O)c4C(=O)C3=C(O)[C@]2(O)C1=O (stereo partly specified)	2.74 µM (inactive)	1.07 µM (active)	1.63 µM (inactive)	0.861 µM (active)	1.67 µM (inactive)	2.81 µM (inactive)	9.55 µM (inactive)	1.77 µM (inactive)	1.84 µM (inactive)	1.79 µM (inactive)	10.1 µM (inactive)	1.85 µM (inactive)	1.56 µM (inactive)	3.24 µM (inactive)	1.36 µM (inactive)	3.01 µM (inactive)	1.88 µM (inactive)	2.43 µM (inactive)	0.962 µM (active)	–
COc1cc2nc(-c3cccs3)nc(N3CCN(c4ccccc4C(F)(F)F)CC3)c2cc1OC	> 100 µM (inactive)	> 100 µM (inactive)	> 100 µM (inactive)	53.7 µM (inactive)	21.4 µM (inactive)	89.9 µM (inactive)	75.5 µM (inactive)	> 100 µM (inactive)	> 100 µM (inactive)	46.2 µM (inactive)	52.8 µM (inactive)	> 100 µM (inactive)	> 100 µM (inactive)	> 100 µM (inactive)	33.3 µM (inactive)	> 100 µM (inactive)	> 100 µM (inactive)	> 100 µM (inactive)	> 100 µM (inactive)	–
C/C=C(\C)c1cc(=O)c2c(C)cc3c(c2o1)C(=O)c1c(O)c(C2CC(C)(N(C)C)C(OC(C)=O)C(C)O2)cc(C2CC(N(C)C)C(O)C(C)O2)c1C3=O (stereo unspecified)	1.48 µM (inactive)	0.155 µM (active)	0.621 µM (active)	1.12 µM (active)	1.45 µM (inactive)	2 µM (inactive)	1.12 µM (active)	0.731 µM (active)	0.748 µM (active)	0.157 µM (active)	1.03 µM (active)	0.971 µM (active)	0.00982 µM (active)	1.41 µM (inactive)	0.625 µM (active)	0.817 µM (active)	1.52 µM (inactive)	1.64 µM (inactive)	0.49 µM (active)	–
Cn1cc(NC(=O)Nc2cc(C(=O)Nc3cc(C(=O)Nc4ccc(S(=O)(=O)O)c5cc(S(=O)(=O)O)ccc45)n(C)c3)n(C)c2)cc1C(=O)Nc1cc(C(=O)Nc2ccc(S(=O)(=O)O)c3cc(S(=O)(=O)O)ccc23)n(C)c1	–	> 100 µM (inactive)	> 100 µM (inactive)	34 µM (inactive)	51.9 µM (inactive)	> 100 µM (inactive)	> 100 µM (inactive)	–	> 100 µM (inactive)	> 100 µM (inactive)	> 100 µM (inactive)	> 100 µM (inactive)	> 100 µM (inactive)	> 100 µM (inactive)	> 100 µM (inactive)	> 100 µM (inactive)	> 100 µM (inactive)	> 100 µM (inactive)	> 100 µM (inactive)	> 100 µM (inactive)
CN(C(=O)CC(=O)CP(=O)(c1ccccc1)c1ccccc1)c1ccccc1	–	> 100 µM (inactive)	> 100 µM (inactive)	> 100 µM (inactive)	–	> 100 µM (inactive)	> 100 µM (inactive)	–	> 100 µM (inactive)	> 100 µM (inactive)	> 100 µM (inactive)	> 100 µM (inactive)	> 100 µM (inactive)	> 100 µM (inactive)	> 100 µM (inactive)	> 100 µM (inactive)	> 100 µM (inactive)	> 100 µM (inactive)	> 100 µM (inactive)	> 100 µM (inactive)
CCCCCCCCCCCCCCCCCCNc1nc(=O)n(C2CC(O)C(COP(=O)(O)OCC(COP(=O)(O)OC3C(CO)OC(n4ccc(N)nc4=O)C3O)OCCCCCCCCCCCCCCCCCC)O2)cc1F (stereo unspecified)	36.7 µM (inactive)	23.3 µM (inactive)	16.7 µM (inactive)	> 100 µM (inactive)	> 100 µM (inactive)	78.5 µM (inactive)	> 100 µM (inactive)	16.7 µM (inactive)	31.7 µM (inactive)	8.71 µM (inactive)	> 100 µM (inactive)	32 µM (inactive)	9.2 µM (inactive)	> 100 µM (inactive)	> 100 µM (inactive)	> 100 µM (inactive)	14.9 µM (inactive)	80.5 µM (inactive)	13.3 µM (inactive)	–
